The results in this text go back to ChEMBL document CHEMBL4339214, “Design, synthesis and biological activity of deuterium-based FFA1 agonists with improved pharmacokinetic profiles” (Bioorg Med Chem Lett, 2019).

The nature of series [1]: AUC (0 to 24 hrs) in 12 hrs fasted Sprague-Dawley rat at 3 mg/kg, po administered as single dose measured up to 24 hrs by LC-PDA-MS/MS analysis. Type of series: ADME, organism-based. Also on record: time < 24 hr, dose 3 mg/kg, route oral. Particulars: in vivo.
Series [2] concerns the target Free fatty acid receptor 1 (Homo sapiens, UniProt O14842). Briefly: Agonist activity at human FFA1 receptor expressed in CHO cells assessed as increase in intracellular calcium levels measured for 1 hr by Fluo 4-AM dye based FLIPR assay. Type of series: functional, cell-based. A general note: A change in cytosolic calcium serves as a functional read-out for many receptors and channels.

Series [3] can be described thus: Cmax in 12 hrs fasted Sprague-Dawley rat at 3 mg/kg, po administered as single dose measured up to 24 hrs by LC-PDA-MS/MS analysis. In kind it is ADME, organism-based. Also on record: dose 3 mg/kg, route oral. Particulars: in vivo.
Series [4] is described as follows: Apparent volume of distribution during terminal phase in 12 hrs fasted Sprague-Dawley rat at 3 mg/kg, po administered as single dose measured up to 24 hrs by LC-PDA-MS/MS analysis. Particulars: in vivo. In kind it is ADME, organism-based.
The nature of series [5]: Half life in 12 hrs fasted Sprague-Dawley rat at 3 mg/kg, po administered as single dose measured up to 24 hrs by LC-PDA-MS/MS analysis. In kind it is ADME, organism-based. Particulars: in vivo.
Series [6] concerns Mus musculus. Briefly: Induction of hypoglycemia in fasting normal ICR mouse assessed as reduction in blood glucose level at 60 mg/kg, po measured up to 3 hrs post dose. In kind it is organism-based. Particulars: in vivo.
The subject of series [7] is Mus musculus. Briefly: Induction of hypoglycemia in fasting normal ICR mouse assessed as reduction in blood glucose level at 15 mg/kg, po measured up to 3 hrs post dose. In kind it is organism-based. Particulars: in vivo.
Series [8] concerns Mus musculus. Nature of the series: Antidiabetic activity in normal ICR mouse assessed as reduction in blood glucose level at 20 mg/kg, po administered 30 mins before oral glucose load by OGTT assay. Type of series: functional, organism-based.
The test system of series [9] is Mus musculus. Briefly: Antidiabetic activity in normal ICR mouse assessed as reduction in blood glucose AUC (0 to 120 mins) at 20 mg/kg, po administered 30 mins before oral glucose load by OGTT assay. Type of series: functional, organism-based.

The source made the active and inactive calls. The calls are words filed in the database; no cut-off is given here.

Free fatty acid receptor 1, sequence (O14842 whole entry): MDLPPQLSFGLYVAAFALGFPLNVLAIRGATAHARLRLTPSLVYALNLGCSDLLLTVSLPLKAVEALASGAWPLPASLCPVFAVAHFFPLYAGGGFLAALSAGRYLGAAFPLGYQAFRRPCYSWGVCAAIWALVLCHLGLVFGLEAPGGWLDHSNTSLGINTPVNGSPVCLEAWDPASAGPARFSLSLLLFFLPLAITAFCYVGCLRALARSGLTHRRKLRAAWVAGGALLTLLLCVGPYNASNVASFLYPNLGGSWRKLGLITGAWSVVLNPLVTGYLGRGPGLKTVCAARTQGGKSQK

Broadly, the AUC is the area under the concentration-time curve, a measure of exposure. Higher therefore signals more exposure. Broadly, the EC50 is the concentration at which the effect is half-maximal. As a reminder, the Cmax is the highest concentration seen after dosing. Consider `[2H]C([2H])(Cc1ccc(OCc2cccc(-c3c(C)noc3C)c2)cc1)C(=O)O`, for which the area under the curve (AUC) in series [1] came out at 31694.16 ng·h/mL. For the same compound, in [2], the concentration for a half-maximal effect (EC50) was 28.9 nM. Moreover, the Cmax in series [3] worked out at 2360 ng/mL. The Vz/F in series [4] amounted to 0.057 L/kg. The t1/2 in series [5] worked out at 2.58 h.

Turning to `[2H]C([2H])(Cc1ccc(OCc2cccc(-c3c(C)noc3C)c2)cc1F)C(=O)O`, the Activity result in the series with Mus musculus [6] is listed as “Non-Toxic”. In series [1], the AUC came out at 46492.43 ng·h/mL. Also, in series [2], the EC50 is 37.4 nM. This compound showed a Cmax in [3] of 2910 ng/mL. Moreover, the Vz/F in [4] amounted to 0.049 L/kg. Also, in [5], the t1/2 came to 3.14 h.

On to `COc1ccc(Cl)cc1C(=O)NCCc1ccc(S(=O)(=O)NC(=O)NC2CCCCC2)cc1` [GLYBURIDE], for which the Activity result with Mus musculus [7] is given as “Toxic”.

Regarding `Cc1noc(C)c1-c1cccc(COc2ccc(CCC(=O)O)c(F)c2)c1`, in series [1], the AUC turned out to be 14063.25 ng·h/mL. In addition, the outcome in the series with Mus musculus [8] and with Mus musculus [9] was inactive. In addition, the outcome in the series on Mus musculus [8] (tested as the 2H-labelled form) and in the series with Mus musculus [9] (tested as the 2H-labelled form) was Active. Further, the EC50 in [2] was determined as 32.5 nM. The compound also registered a Cmax in [3] of 1730 ng/mL. The Vz/F in series [4] worked out at 0.074 L/kg. Besides, the t1/2 in [5] was found to be 1.75 h.
